Counter-ions that a name gives are not always drawn.
How the values were obtained:
Format in all cases: in vivo
[1] = system: Gold Thioglucose-obese mice; experiment: Serum glucose, triglycerides and free fatty acids in gold thioglucose-obese mice (Example 1); settings: GTG-obese mice, after two weeks
Method: Systemic administration of gold thioglucose (GTG) damages glucose-sensing neurons in the hypothalamus, and consequently impairs regulation of satiety, leading to chronic hyperphagia and consequent obesity.
Mice received single daily oral treatment with Compound BI, rosiglitazone or combinations of the two drugs. A group of lean control mice on a standard low fat rodent chow was also included.
• 1. Vehicle (1% hydroxypropylmethylcellulose) • 2. Compound BI 30 mg/kg • 3. Compound BI 100 mg/kg • 4. Rosiglitazone (RSG) 3 mg/kg • 5. RSG 3 mg/kg+Compound BI 30 mg/kg • 6. RSG 3 mg/kg+Compound BI 100 mg/kg • 7. Lean Control (no treatment)
After two weeks, blood samples were collected from the retro-orbital sinus for measurement of serum glucose, triglycerides, and free fatty acids.

db/db mice = experiment: Serum glucose in db/db mice, combinations with rosiglitazone or pioglitazone, 4 weeks (Example 5); settings: 4 weeks oral once per day
Method: Male db/db mice have a defect in the receptor for the appetite-regulating protein leptin and consequently develop hyperphagia, obesity, insulin resistance, hyperglycemia, hypertriglyceridemia. Male db/db mice are an accepted animal model for Type II diabetes. The effect of a range of single daily doses of orally administered Compound BI was assessed in this model, and the efficacy of rosiglitazone alone and in combination with Compound BI was also examined.
Male C57BL/Ksola db/db mice (“db/db mice”) were obtained from Harlan (Indianapolis, Ind.) and allowed to acclimate for a minimum of one week.
Body weights and blood glucose levels were measured and animals were sorted groups of 6-7 mice with equivalent mean body weights in each group. […].
• 12. Vehicle • 13. Compound BI 100 mg/kg/day • 14. Rosiglitazone 3 mg/kg • 15. Rosiglitazone 3 mg/kg+Compound BI 100 mg/kg • 16. Pioglitazone 30 mg/kg • 17. Pioglitazone 30 mg/kg+Compound BI 100 mg/kg • 18. Pioglitazone 100 mg/kg • 19. Pioglitazone 100 mg/kg+Compound BI 100 mg/kg
Drug preparation: Compound BI was suspended in a vehicle comprising 1% aqueous hydroxypropylmethylcellulose, using a tissue homogenizer to minimize particle size and maximize uniformity of the suspension. Pioglitazone and rosiglitazone were suspended in the same vehicle after pulverization of commercial tablets of each of these drugs. Drug concentrations in the dosing suspension for each treatment group were adjusted according to body weights so that a constant volume of 0.4 ml provided appropropriate drug doses in all groups.
Drug Administration: Drugs were administered orally by gavage once per day for 28 days.
Blood sampling: For serum chemistry analysis, nonfasting blood samples (200 microliters) were obtained via the retro-orbital sinus and collected in serum separator tubes at 11 AM on day 28 after initiation of drug administration.

[2] = system: Uncoupling Protein 1 (UCP1); experiment: UCP1 content of white adipose tissue by Western blot in db/db mice (Example 6); settings: for WAT UCP1 (relative light units): db/db mice epididymal fat pads, two weeks daily oral
Description: Uncoupling Protein 1 (UCP1) is a protein that can dissipate metabolic energy when expressed in the mitochondrial membrane. It is present in brown adipose tissue (BAT; the brown color is due to a higher density of mitochondria than in white adipose tissue) in small mammals where its main function is to generate heat, but it can also serve to accelerate combustion of fatty acids. This latter function is especially important when UCP1 is expressed in tissues other than brown fat, since depots of brown fat are limited in humans Expression of UCP1 in white fat alters the functional phenotype of the tissue from fat storage to fat combustion. Transgenic mice expressing UCP1 in white adipose tissue are resistant to obesity and diabetes induced by a high fat diet. Pharmacological induction of UCP1 expression in white adipose tissue is therefore an attractive strategy for promoting weight reduction and resistance to body weight gain. […]
Treatment cohorts were given daily oral doses of vehicle, Compound BI (100 mg/kg/day), rosiglitazone (RSG; 3 mg/kg/day) or a combination of the two drugs for 2 weeks. […] Blood samples were also collected prior to sacrifice via the retro-orbital plexus, and processed and analyzed for serum glucose (AniLytics, Inc.; Gaithersburg Md.). […]
The membrane was washed 3 times in TBST at room temperature, and then incubated with a primary anti UCPI antibody (Chemicon Rabbit anti-mouse UCP-1, catalogue #AB3036) for 1 hr at RT (room temperature) in a sealed bag. […] The membrane was washed 6×7 min in TBST at room temperature, and then incubated with ECL (enhanced chemiluminescence) reagent (Amersham) for 1 min, and the relative amounts of UCP1 in tissue samples were quantified by densitometry of the images on X-ray film resulting from exposure to light from the chemiluminescence reaction, and expressed as relative light units (RLU).

[3] = Compound BI 30 mg/kg oral daily
[4] = Compound BI 100 mg/kg oral daily

Compound	blood glucose, triglycerides and free fatty acids (in words) [1]	Free Fatty Acids ± SEM [1, 3] [UMOL/L]	Glucose ± SEM [1, 3] [mg/dL]	Triglycerides ± SEM [1, 3] [mg/dL]	Free Fatty Acids ± SEM [1, 4] [UMOL/L]	Glucose ± SEM [1, 4] [mg/dL]	Triglycerides ± SEM [1, 4] [mg/dL]	Serum Glucose (mg/dL) Mean ± SD (db/db mice; Compound BI 100 mg/kg) [mg/dL]	WAT UCP1 (relative light units) ([2]; Cpd. BI 100 mg/kg)	UCP1 content of white adipose tissue (in words) ([2]; db/db mice, 2 weeks, Compound BI 100 mg/kg/day, RSG 3 mg/kg/day, alone or combined)	Free Fatty Acids ± SEM ([1]; RSG 3 mg/kg oral daily) [UMOL/L]	Glucose ± SEM ([1]; RSG 3 mg/kg oral daily) [mg/dL]	Triglycerides ± SEM ([1]; RSG 3 mg/kg oral daily) [mg/dL]	Serum Glucose (mg/dL) Mean ± SD (db/db mice; RSG 3 mg/kg) [mg/dL]	WAT UCP1 (relative light units) ([2]; RSG 3 mg/kg)
Cc1cccc(C)c1COc1cccc(C(=O)CCC(=O)O)c1 [Compound BI, 4-(3-(2,6-Dimethylbenzyloxy)phenyl)-4-oxobutyric acid]	dose-dependent decreases	969.2 ± 18.2	205.8 ± 8.1	62.8 ± 3.0	936.2 ± 63.0	160.0 ± 17.7	53.8 ± 7.4	376 ± 151	322 ± 94	slightly the UCP1 content of elevated white adipose tissue	–	–	–	–	–
CN(CCOc1ccc(CC2SC(=O)NC2=O)cc1)c1ccccn1 (stereo not drawn) [RSG, rosiglitazone maleate, reference compound]	–	–	–	–	–	–	–	–	–	–	813.8 ± 34.2	215.8 ± 14.3	61.4 ± 4.3	432 ± 138	2067 ± 717

— US8338480B2, “Combination treatment of metabolic disorders” (Wellstat Therapeutics Corporation, priority 2006, dated 2012)
